Experimental findings from article PMC6204823, “Synthesis of 3-aminocoumarin-N-benzylpyridinium conjugates with nanomolar inhibitory activity against acetylcholinesterase” (Beilstein Journal of Organic Chemistry, 2018) are described below.

Structures are written as SMILES.

T1 sequence (O42275 24-633): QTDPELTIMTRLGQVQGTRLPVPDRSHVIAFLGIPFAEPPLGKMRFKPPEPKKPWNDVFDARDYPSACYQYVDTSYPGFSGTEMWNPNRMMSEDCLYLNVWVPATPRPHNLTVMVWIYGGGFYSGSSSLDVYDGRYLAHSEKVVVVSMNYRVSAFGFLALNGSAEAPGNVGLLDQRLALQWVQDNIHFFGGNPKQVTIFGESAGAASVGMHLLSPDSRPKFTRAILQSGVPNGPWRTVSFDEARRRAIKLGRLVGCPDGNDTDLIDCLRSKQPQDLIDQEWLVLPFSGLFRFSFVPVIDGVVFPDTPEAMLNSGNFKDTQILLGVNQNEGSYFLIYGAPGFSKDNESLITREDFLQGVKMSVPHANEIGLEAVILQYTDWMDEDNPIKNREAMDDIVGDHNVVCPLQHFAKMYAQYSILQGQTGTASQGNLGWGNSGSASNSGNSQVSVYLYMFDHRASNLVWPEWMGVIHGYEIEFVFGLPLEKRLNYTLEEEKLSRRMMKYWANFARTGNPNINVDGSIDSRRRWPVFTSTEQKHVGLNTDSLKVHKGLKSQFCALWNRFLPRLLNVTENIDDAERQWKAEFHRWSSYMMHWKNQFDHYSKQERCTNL

Tested on in one data set: not listed separately
Description: Cytotoxicity against MRC-5 normal embryonic lung cell. Format: cell-based. The conditions noted are these: human, MRC-5 normal embryonic lung cells; concentration of 50 μg/mL. From the text:
For chlorine as a substituent, the activity followed the order of ortho > meta > para. […] For fluorine as a substituent, the activity also followed the order of ortho > meta ≈ para. […].
In turn, `COc1cc2cc(NC(=O)c3cc[n+](Cc4cccc(F)c4F)cc3)c(=O)oc2cc1OC.[Br-]` [compound 9h] came in with a cytotoxicity at 50 μg/mL of 0%.

The next data set concerns the target T1, Electrophorus electricus AChE (Electrophorus electricus, UniProt O42275).
T1 construct: purchased Sigma-Aldrich, USA Type VI-S
Description: biochemical.
Settings: not given
As to the method:
The AChE inhibitory activity of the synthesized compounds was evaluated by Ellman’s method using Electrophorus electricus AChE; donepezil hydrochloride and tacrine were used as the reference compounds.
AChE (Electrophorus electricus, Type VI-S, lyophilized powder) was purchased from Sigma-Aldrich, USA. Acetylthiocholine, 5,5′-dithiobis(2-nitrobenzoic acid), sodium dihydrogen phosphate, disodium hydrogen phosphate, and sodium hydrogen carbonate were obtained from Fluka, Switzerland. AChE inhibitory activity was […]
USA) based on Ellman’s method with slight modifications. For each assay, 200 μL of the assay medium containing 100 μL of 0.1 M phosphate buffer (pH 8), 20 μL of 3.3 mM 5,5′-dithiobis(2-nitrobenzoic acid) in 0.1 M phosphate buffer (pH 7) containing 6 mM NaHCO3, 20 μL of the test compounds at different concentrations in methanol, and 40 μL of 0.15 unit/mL AChE in phosphate buffer (pH 8) were incubated at 37 °C for 20 min. Subsequently, 20 μL of 5 mM acetylthiocholine iodide in water was added, and the absorbance was measured at 412 nm every 20 s for 3 min. The rate of each reaction was calculated by Microplate Manager software.
The blank percentage of inhibition of the tested compounds was determined by comparing the rate of the sample to the blank. The IC50 value was determined by nonlinear regression of the log inhibitor concentration versus the percentage of inhibition using GraphPad Prism6. Donepezil hydrochloride and tacrine were applied as the reference compounds. All samples were assayed in triplicate.
Turning to `COc1cc2cc(NC(=O)c3cc[n+](Cc4cccc(F)c4F)cc3)c(=O)oc2cc1OC.[Br-]` [compound 9h], the “fold lower IC50 than donepezil hydrochloride” value was 35 fold and the “fold lower IC50 than tacrine” value stood at 124 fold.

Still in this data set, the particulars now being: concentration producing 50% inhibition of enzyme activity; triplicate independent experiments.
One may read the IC50 as the midpoint of a concentration-inhibition curve. The compound `COc1cc2cc(NC(=O)c3cc[n+](Cc4ccc(Cl)cc4)cc3)c(=O)oc2cc1OC` [compound 9d] gave an IC50 of 293 ± 13.6 nM.

On to `COc1cc2cc(NC(=O)c3cc[n+](Cc4cccc(Cl)c4)cc3)c(=O)oc2cc1OC` [compound 9c], for which the IC50 worked out at 11.5 ± 0.63 nM.

In the case of `COc1cc2cc(NC(=O)c3cc[n+](Cc4cccc(F)c4F)cc3)c(=O)oc2cc1OC.[Br-]` [compound 9h], half-maximal inhibition (IC50) was put at 1.53 ± 0.01 nM.

Compound `COc1cc2cc(NC(=O)c3cc[n+](Cc4c(F)cccc4F)cc3)c(=O)oc2cc1OC` [compound 9i] yielded an IC50 of 2.43 ± 0.18 nM.

As to `COc1cc2cc(NC(=O)c3cc[n+](Cc4ccc(F)cc4)cc3)c(=O)oc2cc1OC` [compound 9g], the IC50 was 5.31 ± 0.38 nM.

The compound `COc1cc2cc(NC(=O)c3cc[n+](Cc4ccccc4Cl)cc3)c(=O)oc2cc1OC` [compound 9b] gave an IC50 of 6.03 ± 0.18 nM.

The compound `COc1cc2cc(NC(=O)c3cc[n+](Cc4ccccc4F)cc3)c(=O)oc2cc1OC` [compound 9e] had an IC50 of 3.05 ± 0.28 nM.

`COc1cc2cc(NC(=O)c3cc[n+](Cc4cccc(F)c4)cc3)c(=O)oc2cc1OC` [compound 9f] gave an IC50 of 5.04 ± 0.26 nM.

As to `O=C(Nc1cc2ccccc2oc1=O)c1cc[n+](Cc2ccccc2)cc1` [compound 4a], half-maximal inhibition (IC50) required 71.9 ± 3.4 nM.

As for `COc1cc2cc(NC(=O)c3cc[n+](Cc4ccccc4)cc3)c(=O)oc2cc1OC` [compound 9a], it took 12.5 ± 0.71 nM to reach half-maximal inhibition (IC50).

`COc1cc2cc(NC(=O)Cc3cc[n+](Cc4ccccc4)cc3)c(=O)oc2cc1OC` [compound 10a] registered an IC50 of 1087.7 ± 0.05 nM.

Staying with this data set, now noted: read-out: % Inhibition at concentration of 1 μM, 1 μM.
`COc1cc2cc(NC(=O)Cc3ccncc3)c(=O)oc2cc1OC` [compound 10]: the inhibition at 1 µM was < 10%.

`O=C(Cc1ccncc1)Nc1cc2ccccc2oc1=O` [compound 5]: the inhibition at 1 µM was < 10%.

`COc1cc2cc(N)c(=O)oc2cc1OC` [compound 8]: the inhibition at 1 µM stood at 5%.

Regarding `COc1cc2cc(NC(=O)c3ccncc3)c(=O)oc2cc1OC` [compound 9], the inhibition at 1 µM was < 10%.

As to `O=C(Cc1cc[n+](Cc2ccccc2)cc1)Nc1cc2ccccc2oc1=O` [compound 5a], the inhibition at 1 µM came to 10%.

As for `Nc1cc2ccccc2oc1=O` [compound 3, 3-aminocoumarin], the inhibition at 1 µM amounted to 12%.
